The source made the active and inactive calls. The rule behind the calls is not given here.
Experiments:
Rattus norvegicus [1] = experiment: Antiinflammatory activity in Wistar rat assessed as protection against carrageenan-induced paw edema at 10 mg/kg, po after 3 to 7 hrs by pletismometric analysis relative to vehicle-treated control; assay type: functional
Rattus norvegicus [2] = experiment: Antiinflammatory activity in Wistar rat assessed as protection against carrageenan-induced paw edema at 10 mg/kg, po after 2 hrs by pletismometric analysis relative to vehicle-treated control; assay type: functional
[3] = Solubility of the compound in water; assay type: physicochemical; conditions: buffer
Rattus norvegicus [4] = experiment: Antiinflammatory activity in Wistar rat assessed as protection against carrageenan-induced paw edema at 200 mg/kg, po by pletismometric analysis; assay type: functional, organism-based; design: dose 200 mg/kg; conditions: TDE = time-dependent effect
Rattus norvegicus [5] = experiment: Antiinflammatory activity in Wistar rat assessed as protection against carrageenan-induced paw edema at 200 mg/kg, po after 3 hrs by pletismometric analysis relative to vehicle-treated control; assay type: functional
[6] = Solubility of the compound in DMSO; assay type: physicochemical
Rattus norvegicus [7] = experiment: Antiinflammatory activity in Wistar rat assessed as protection against carrageenan-induced paw edema at 200 mg/kg, ip measured after 1 hr by pletismometric analysis relative to vehicle-treated control; assay type: functional; conditions: route intraperitoneal
Rattus norvegicus [8] = experiment: Antiinflammatory activity in Wistar rat assessed as protection against carrageenan-induced paw edema at 200 mg/kg, ip by pletismometric analysis; assay type: functional, organism-based; design: dose 200 mg/kg; conditions: TDE = time-dependent effect
Rattus norvegicus [9] = experiment: Antiinflammatory activity in Wistar rat assessed as protection against carrageenan-induced paw edema at 200 mg/kg, ip measured after 2 to 7 hrs by pletismometric analysis relative to vehicle-treated control; assay type: functional; conditions: route intraperitoneal
Rattus norvegicus [10] = experiment: Antiinflammatory activity in Wistar rat assessed as protection against carrageenan-induced paw edema at 200 mg/kg, po after 4 to 7 hrs by pletismometric analysis relative to vehicle-treated control; assay type: functional
Rattus norvegicus [11] = experiment: Antiinflammatory activity in Wistar rat assessed as protection against carrageenan-induced paw edema at 200 mg/kg, ip measured after 2 to 7 hrs by pletismometric analysis; assay type: functional, organism-based; design: dose 200 mg/kg
Rattus norvegicus [12] = experiment: Antiinflammatory activity in Wistar rat assessed as protection against carrageenan-induced paw edema at 200 mg/kg, po after 7 hrs by pletismometric analysis relative to vehicle-treated control; assay type: functional
Rattus norvegicus [13] = experiment: Antiinflammatory activity in Wistar rat assessed as protection against carrageenan-induced paw edema at 200 mg/kg, po after 3 to 7 hrs by pletismometric analysis relative to vehicle-treated control; assay type: functional, organism-based; design: dose 200 mg/kg
Rattus norvegicus [14] = experiment: Antiinflammatory activity in Wistar rat assessed as protection against carrageenan-induced paw edema at 200 mg/kg, po after 2 hrs by pletismometric analysis relative to vehicle-treated control; assay type: functional
Rattus norvegicus [15] = experiment: Antiinflammatory activity in Wistar rat assessed as protection against carrageenan-induced paw edema at 200 mg/kg, po after 2 to 7 hrs by pletismometric analysis relative to vehicle-treated control; assay type: functional, organism-based; design: dose 200 mg/kg
Rattus norvegicus [16] = experiment: Antiinflammatory activity in Wistar rat assessed as protection against carrageenan-induced paw edema at 200 mg/kg, po after 1 hr by pletismometric analysis relative to vehicle-treated control; assay type: functional
Rattus norvegicus [17] = experiment: Antiinflammatory activity in Wistar rat assessed as protection against carrageenan-induced paw edema at 200 mg/kg, ip measured after 2 hrs by pletismometric analysis relative to vehicle-treated control; assay type: functional; conditions: route intraperitoneal
Rattus norvegicus [18] = experiment: Antiinflammatory activity in Wistar rat assessed as protection against carrageenan-induced paw edema at 200 mg/kg, ip measured after 3 to 7 hrs by pletismometric analysis relative to vehicle-treated control; assay type: functional, organism-based; design: dose 200 mg/kg

SMILES	Activity (Rattus norvegicus [1]) [%]	%max (Rattus norvegicus [2]) [%]	solubility [3]	Activity (Rattus norvegicus [4])	%max (Rattus norvegicus [5]) [%]	solubility [6]	%max (Rattus norvegicus [7]) [%]	Activity (Rattus norvegicus [8])	Activity (Rattus norvegicus [9]) [%]	Activity (Rattus norvegicus [10]) [%]	Activity (Rattus norvegicus [11])	Activity (Rattus norvegicus [12]) [%]	Activity (Rattus norvegicus [13])	%max (Rattus norvegicus [14]) [%]	Activity (Rattus norvegicus [15])	%max (Rattus norvegicus [16]) [%]	Activity (Rattus norvegicus [14]) [%]	%max (Rattus norvegicus [17]) [%]	Activity (Rattus norvegicus [18])
Cc1cnc(NC(=O)C2=C(O)c3ccccc3S(=O)(=O)N2C)s1 [MELOXICAM]	50	59.3	–	–	–	–	–	–	–	–	–	–	–	–	–	–	–	–	–
O=C(/C=C/c1ccccc1)c1ccccc1[N+](=O)[O-]	–	–	Insoluble	tde	34.8	soluble	58.2	tde	50	30	–	–	–	–	–	–	–	–	–
O=C(/C=C/c1ccccc1)c1cccc([N+](=O)[O-])c1	–	–	Insoluble	tde	–	soluble	68	tde	–	–	Active	0	inactive	31	–	–	–	–	–
O=C(/C=C/c1ccccc1)c1ccc([N+](=O)[O-])cc1	–	–	Insoluble	tde	–	soluble	–	tde	–	–	–	–	–	–	Active	38	20	43.2	Active

From ChEMBL document CHEMBL2429779, “Synthesis and anti-inflammatory activity of three nitro chalcones” (Bioorg Med Chem Lett, 2013)
